{
  "source": "patent US9932637B2",
  "about": "“Genetic polymorphisms associated with cardiovascular disorders and drug response, methods of detection and uses thereof” (CELERA CORPORATION, priority 2003, dated 2018)",
  "test_system": "patients with prior myocardial infarction (CARE study)",
  "test": "CARE aligned analysis (prospective and case/control design, white males): association of genotypes with pravastatin efficacy (Tables 13, 15)",
  "assay_type": "in vivo, human",
  "conditions": "for 2 Rare Alleles n/total, Pravastatin Patients / 2 Rare Alleles (%), Pravastatin Patients / Pravastatin Patients (%) / Pravastatin Patients n/total: F&NF MI; for 2 rare alleles n/total (%), pravastatin patients / Pravastatin vs placebo odds ratio, 0 rare alleles / Pravastatin vs placebo odds ratio, 1 rare allele / Pravastatin vs placebo odds ratio, 2 rare alleles: CARE, F MI/SD/NF MI; for Pravastatin Patients (%) / Pravastatin Patients n/total: WM",
  "procedure": "The data presented in Table 8 based on an association of genotypes with pravastatin efficacy of the CARE samples were further analyzed and presented in Table 13. The further analysis was performed to align the data obtained from the analysis of the CARE samples, which was a prospective study, to the analysis of the WOSCOP samples, which was a case/control study. Table 13 also presents an analysis of the association of genotypes with pravastatin efficacy in the WOSCOPs samples. Relative to the analysis performed on the data presented in Table 8, there are two significant differences to determine if the SNP influenced pravastatin efficacy. Data obtained from the CARE samples were separated by study design into two groups, those in the prospective study design group and those in the case/control study design group. The original care study contained 16 protocol defined cardiovascular disease defined endpoints and 150 other phenotypes. […] The control groups used to compare the data were also divided into two groups, the “all possible” control group and the “cleaner” control group. […] Because the participants in the WOSCOPs trial were all white males, only data obtained from white males in the CARE study were analysed. Data from the “all possible” and “cleaner” controls were compared to data obtained from the cases in the prospective study design while only data from “cleaner” controls were compared to cases in the case/control study design. The data from the case/control cohorts were analysed using conditional logistic regression (as opposed to logistic regression used for the original anaylsis).\nThe anaylsis was refined as described for both Tables 13 and 14.",
  "key": {"[1]": {"conditions": "F7 hCV783184, CARE Case/Control"}, "[2]": {"conditions": "F13A1 hCV11972326, CARE Case/Control"}, "[3]": {"conditions": "FABP1 hCV16173091, CARE Case/Control"}, "[4]": {"conditions": "FCAR hCV7841842, CARE Case/Control"}, "[5]": {"conditions": "FN1 hCV9506149, CARE Case/Control"}, "[6]": {"conditions": "GALC hCV25922440, CARE Prospective"}, "[7]": {"conditions": "GAPD hCV8921288, CARE Case/Control"}, "[8]": {"conditions": "GAPD hCV8921288, CARE Prospective"}, "[9]": {"conditions": "HLA-DPB1 hCV8851065, 0 Rare Alleles, CARE Case/Control, All Possible controls"}, "[10]": {"conditions": "HLA-DPB1 hCV8851065, 0 Rare Alleles, CARE Case/Control, Cleaner controls"}, "[11]": {"conditions": "HLA-DPB1 hCV8851065, 1 Rare Allele, CARE Case/Control, All Possible controls"}, "[12]": {"conditions": "HLA-DPB1 hCV8851065, 1 Rare Allele, CARE Case/Control, Cleaner controls"}, "[13]": {"conditions": "HLA-DPB1 hCV8851065, Case/Control"}, "[14]": {"conditions": "HLA-DPB1 hCV8851065, Prospective"}, "[15]": {"conditions": "HLA-DPB1 hCV8851084, 0 Rare Alleles, CARE Case/Control, All Possible controls"}, "[16]": {"conditions": "HLA-DPB1 hCV8851084, 0 Rare Alleles, CARE Case/Control, Cleaner controls"}, "[17]": {"conditions": "HLA-DPB1 hCV8851084, 0 Rare Alleles, CARE Prospective, Cleaner controls"}, "[18]": {"conditions": "HLA-DPB1 hCV8851084, 1 Rare Allele, CARE Case/Control, All Possible controls"}, "[19]": {"conditions": "HLA-DPB1 hCV8851084, 1 Rare Allele, CARE Case/Control, Cleaner controls"}, "[20]": {"conditions": "HLA-DPB1 hCV8851084, 1 Rare Allele, CARE Prospective, Cleaner controls"}, "[21]": {"conditions": "HLA-DPB1 hCV8851084, Case/Control"}, "[22]": {"conditions": "HLA-DPB1 hCV8851084, Prospective"}, "[23]": {"conditions": "HLA-DPB1 hCV8851085, 0 Rare Alleles, CARE Case/Control, All Possible controls"}, "[24]": {"conditions": "HLA-DPB1 hCV8851085, 0 Rare Alleles, CARE Case/Control, Cleaner controls"}, "[25]": {"conditions": "HLA-DPB1 hCV8851085, 0 Rare Alleles, CARE Prospective, All Possible controls"}},
  "note": "Several values for one entry are separate records, joined by “and”; a condition that tells them apart may be missing. Equal values may be shown once.",
  "data": [
    {"smiles": "CC[C@H](C)C(=O)O[C@H]1C[C@H](O)C=C2C=C[C@H](C)[C@H](CC[C@@H](O)C[C@@H](O)CC(=O)O)[C@H]21", "note": "[pravastatin]", "values": [
      {"measurement": "2 Rare Alleles n/total, Pravastatin Patients", "setting": "F7 hCV783138, CARE Prospective", "result": "1/13 and 1/9"},
      {"measurement": "2 Rare Alleles (%), Pravastatin Patients", "setting": "[1]", "result": "(14.3%)"},
      {"measurement": "2 Rare Alleles n/total, Pravastatin Patients", "setting": "[1]", "result": "2/14"},
      {"measurement": "2 Rare Alleles (%), Pravastatin Patients", "setting": "F7 hCV783184, CARE Prospective", "result": "(14.3%)"},
      {"measurement": "2 Rare Alleles n/total, Pravastatin Patients", "setting": "F7 hCV783184, CARE Prospective", "result": "2/14"},
      {"measurement": "2 Rare Alleles (%), Pravastatin Patients", "setting": "[2]", "result": "(19.4%)"},
      {"measurement": "2 Rare Alleles n/total, Pravastatin Patients", "setting": "[2]", "result": "14/72"},
      {"measurement": "2 Rare Alleles (%), Pravastatin Patients", "setting": "[3]", "result": "(20.9%)"},
      {"measurement": "2 Rare Alleles n/total, Pravastatin Patients", "setting": "[3]", "result": "19/91"},
      {"measurement": "2 Rare Alleles n/total, Pravastatin Patients", "setting": "FABP1 hCV16173091, CARE Prospective", "result": "19/127 and 19/91"},
      {"measurement": "2 rare alleles n/total (%), pravastatin patients", "setting": "FCAR hCV7841642, Prospective", "result": "(12.5%)"},
      {"measurement": "Pravastatin vs placebo odds ratio, 0 rare alleles", "setting": "FCAR hCV7841642, Prospective", "result": 0.84},
      {"measurement": "Pravastatin vs placebo odds ratio, 1 rare allele", "setting": "FCAR hCV7841642, Prospective", "result": 0.27},
      {"measurement": "Pravastatin vs placebo odds ratio, 2 rare alleles", "setting": "FCAR hCV7841642, Prospective", "result": 0.43},
      {"measurement": "2 Rare Alleles (%), Pravastatin Patients", "setting": "[4]", "result": "(12.5%)"},
      {"measurement": "2 Rare Alleles n/total, Pravastatin Patients", "setting": "[4]", "result": "1/8"},
      {"measurement": "2 Rare Alleles (%), Pravastatin Patients", "setting": "[5]", "result": "(13.8%)"},
      {"measurement": "2 Rare Alleles n/total, Pravastatin Patients", "setting": "[5]", "result": "12/87"},
      {"measurement": "2 Rare Alleles (%), Pravastatin Patients", "setting": "[6]", "result": "(14.7%)"},
      {"measurement": "2 Rare Alleles n/total, Pravastatin Patients", "setting": "[6]", "result": "5/34"},
      {"measurement": "2 rare alleles n/total (%), pravastatin patients", "setting": "GALC hCV25922440, Prospective", "result": "(14.7%)"},
      {"measurement": "Pravastatin vs placebo odds ratio, 0 rare alleles", "setting": "GALC hCV25922440, Prospective", "result": 0.94},
      {"measurement": "Pravastatin vs placebo odds ratio, 1 rare allele", "setting": "GALC hCV25922440, Prospective", "result": 0.38},
      {"measurement": "Pravastatin vs placebo odds ratio, 2 rare alleles", "setting": "GALC hCV25922440, Prospective", "result": 1.12},
      {"measurement": "2 Rare Alleles (%), Pravastatin Patients", "setting": "[7]", "result": "(7.5%)"},
      {"measurement": "2 Rare Alleles n/total, Pravastatin Patients", "setting": "[7]", "result": "4/53 and 4/38"},
      {"measurement": "2 Rare Alleles (%), Pravastatin Patients", "setting": "[8]", "result": "(10.5%)"},
      {"measurement": "2 Rare Alleles n/total, Pravastatin Patients", "setting": "[8]", "result": "4/38"},
      {"measurement": "Pravastatin Patients (%)", "setting": "[9]", "result": "(10.0%)"},
      {"measurement": "Pravastatin Patients n/total", "setting": "[9]", "result": "63/633"},
      {"measurement": "Pravastatin Patients (%)", "setting": "[10]", "result": "(14.2%)"},
      {"measurement": "Pravastatin Patients n/total", "setting": "[10]", "result": "63/445"},
      {"measurement": "Pravastatin Patients (%)", "setting": "[11]", "result": "(10.0%)"},
      {"measurement": "Pravastatin Patients n/total", "setting": "[11]", "result": "49/491"},
      {"measurement": "Pravastatin Patients (%)", "setting": "[12]", "result": "(14.9%)"},
      {"measurement": "Pravastatin Patients n/total", "setting": "[12]", "result": "49/329"},
      {"measurement": "2 rare alleles n/total (%), pravastatin patients", "setting": "[13]", "result": "(14.8%)"},
      {"measurement": "Pravastatin vs placebo odds ratio, 0 rare alleles", "setting": "[13]", "result": "0.60 and 0.52"},
      {"measurement": "Pravastatin vs placebo odds ratio, 1 rare allele", "setting": "[13]", "result": "0.87 and 0.80"},
      {"measurement": "Pravastatin vs placebo odds ratio, 2 rare alleles", "setting": "[13]", "result": "5.02 and 5.41"},
      {"measurement": "2 rare alleles n/total (%), pravastatin patients", "setting": "[14]", "result": "(14.8%)"},
      {"measurement": "Pravastatin vs placebo odds ratio, 0 rare alleles", "setting": "[14]", "result": "0.62 and 0.55"},
      {"measurement": "Pravastatin vs placebo odds ratio, 1 rare allele", "setting": "[14]", "result": "0.86 and 0.76"},
      {"measurement": "Pravastatin vs placebo odds ratio, 2 rare alleles", "setting": "[14]", "result": "4.85 and 4.94"},
      {"measurement": "Pravastatin Patients (%)", "setting": "[15]", "result": "(10.2%)"},
      {"measurement": "Pravastatin Patients n/total", "setting": "[15]", "result": "80/785"},
      {"measurement": "Pravastatin Patients (%)", "setting": "[16]", "result": "(14.7%)"},
      {"measurement": "Pravastatin Patients n/total", "setting": "[16]", "result": "80/546"},
      {"measurement": "Pravastatin Patients (%)", "setting": "[17]", "result": "(14.4%)"},
      {"measurement": "Pravastatin Patients n/total", "setting": "[17]", "result": "80/556"},
      {"measurement": "Pravastatin Patients (%)", "setting": "[18]", "result": "(10.1%)"},
      {"measurement": "Pravastatin Patients n/total", "setting": "[18]", "result": "39/385"},
      {"measurement": "Pravastatin Patients (%)", "setting": "[19]", "result": "(14.9%)"},
      {"measurement": "Pravastatin Patients n/total", "setting": "[19]", "result": "39/262"},
      {"measurement": "Pravastatin Patients (%)", "setting": "[20]", "result": "(14.7%)"},
      {"measurement": "Pravastatin Patients n/total", "setting": "[20]", "result": "39/265"},
      {"measurement": "2 Rare Alleles (%), Pravastatin Patients", "setting": "HLA-DPB1 hCV8851084, CARE Prospective", "result": "(25.0%)"},
      {"measurement": "2 rare alleles n/total (%), pravastatin patients", "setting": "[21]", "result": "(22.6%)"},
      {"measurement": "Pravastatin vs placebo odds ratio, 0 rare alleles", "setting": "[21]", "result": 0.60},
      {"measurement": "Pravastatin vs placebo odds ratio, 1 rare allele", "setting": "[21]", "result": 0.84},
      {"measurement": "Pravastatin vs placebo odds ratio, 2 rare alleles", "setting": "[21]", "result": 5.83},
      {"measurement": "2 rare alleles n/total (%), pravastatin patients", "setting": "[22]", "result": "(22.6%)"},
      {"measurement": "Pravastatin vs placebo odds ratio, 0 rare alleles", "setting": "[22]", "result": 0.61},
      {"measurement": "Pravastatin vs placebo odds ratio, 1 rare allele", "setting": "[22]", "result": 0.82},
      {"measurement": "Pravastatin vs placebo odds ratio, 2 rare alleles", "setting": "[22]", "result": 4.81},
      {"measurement": "Pravastatin Patients (%)", "setting": "[23]", "result": "(10.1%)"},
      {"measurement": "Pravastatin Patients n/total", "setting": "[23]", "result": "74/733"},
      {"measurement": "Pravastatin Patients (%)", "setting": "[24]", "result": "(14.4%)"},
      {"measurement": "Pravastatin Patients n/total", "setting": "[24]", "result": "74/513"},
      {"measurement": "Pravastatin Patients (%)", "setting": "[25]", "result": "(9.9%)"},
      {"measurement": "Pravastatin Patients n/total", "setting": "[25]", "result": "74/747"}
    ]}
  ]
}
